Counter-ions that a name gives are not always drawn.

One assay has as its target T1, human CYP11B2 (Homo sapiens, UniProt P19099).
T1 construct: expressed in transfected cells
T1 sequence (P19099 25-503): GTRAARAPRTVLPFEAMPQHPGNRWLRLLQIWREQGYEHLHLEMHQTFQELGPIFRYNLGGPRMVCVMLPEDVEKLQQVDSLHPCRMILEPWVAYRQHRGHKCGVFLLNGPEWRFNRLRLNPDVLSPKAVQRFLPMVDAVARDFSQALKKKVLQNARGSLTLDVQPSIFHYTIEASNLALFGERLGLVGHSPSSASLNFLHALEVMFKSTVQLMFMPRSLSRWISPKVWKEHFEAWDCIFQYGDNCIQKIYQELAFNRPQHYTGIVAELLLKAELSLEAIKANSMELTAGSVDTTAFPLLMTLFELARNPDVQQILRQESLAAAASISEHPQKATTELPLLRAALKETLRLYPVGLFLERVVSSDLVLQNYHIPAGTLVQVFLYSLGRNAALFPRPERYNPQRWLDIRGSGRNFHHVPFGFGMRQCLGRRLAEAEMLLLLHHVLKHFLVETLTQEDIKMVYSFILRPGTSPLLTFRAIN
In words: G-402 cellular enzyme assay, human CYP11B2 (aldosterone release, HTRF). In kind it is cell-based. As to conditions: G-402 cells expressing human CYP11B2; 1 μM Deoxycorticosterone. In a few lines:
(§1)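 EC50 comes from least-squares fitting of a 4-parameter MMF curve to steroid product levels, measured by HTRF as aldosterone for CYP11B2 or cortisol for CYP11B1. Stably transfected G-402 host cells were given substrate (1 μM deoxycorticosterone or deoxycortisol, respectively) with inhibitor for 16 h in medium with 2.5% charcoal-treated FCS.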

Another assay addresses T2, human CYP11B1 (Homo sapiens, UniProt P15538).
T2 construct: expressed in transfected cells
T2 sequence (P15538 25-503): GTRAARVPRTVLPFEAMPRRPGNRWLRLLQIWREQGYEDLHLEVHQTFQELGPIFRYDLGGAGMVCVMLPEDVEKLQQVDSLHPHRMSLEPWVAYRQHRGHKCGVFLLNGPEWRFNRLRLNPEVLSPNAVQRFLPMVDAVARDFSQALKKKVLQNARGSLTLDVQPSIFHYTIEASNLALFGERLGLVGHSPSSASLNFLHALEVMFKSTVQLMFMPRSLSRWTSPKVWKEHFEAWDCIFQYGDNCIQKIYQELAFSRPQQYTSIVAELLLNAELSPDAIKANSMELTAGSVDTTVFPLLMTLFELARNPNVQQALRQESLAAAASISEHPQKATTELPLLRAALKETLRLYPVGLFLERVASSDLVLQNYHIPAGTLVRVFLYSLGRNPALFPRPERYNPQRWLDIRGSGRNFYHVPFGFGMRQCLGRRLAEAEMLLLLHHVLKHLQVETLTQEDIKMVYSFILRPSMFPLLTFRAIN
The experiment in a line: G-402 cellular enzyme assay, human CYP11B1 (cortisol release, HTRF). It is filed as cell-based. The note with it: G-402 cells expressing human CYP11B1; 1 μM Deoxycortisol. In a few lines: as §1
In general terms: TR-FRET usually uses a lanthanide donor and a delayed reading to cut background.

Turning to `CCOCCN(Cc1cncc(-c2ccc3c(c2)CCC(=O)N3C)c1)S(=O)(=O)CC` [Example 185, Ethanesulfonic acid (2-ethoxy-ethyl)-[5-(1-methyl-2-oxo-1,2,3,4-tetrahydro-quinolin-6-yl)-pyridin-3-ylmethyl]-amide], the results for the EC50 on human CYP11B2 and at human CYP11B1 were 633 nM and 9290 nM, respectively.
`CN1C(=O)CCc2cc(-c3cncc(OCCN4CCCS4(=O)=O)c3)ccc21` [Example 189, 6-{5-[2-(1,1-Dioxo-1λ^6-isothiazolidin-2-yl)-ethoxy]-pyridin-3-yl}-1-methyl-3,4-dihydro-1H-quinolin-2-one]: the EC50 at human CYP11B2 worked out at 2 nM; at human CYP11B1 it was 93 nM.
In the case of `CCS(=O)(=O)N(C)C(C)c1cncc(-c2ccc3c(c2)CCC(=O)N3C)c1` (racemic) [Example 186, (rac)-Ethanesulfonic acid methyl-{1-[5-(1-methyl-2-oxo-1,2,3,4-tetrahydro-quinolin-6-yl)-pyridin-3-yl]-ethyl}-amide], the EC50 on human CYP11B2 came to 11 nM; at human CYP11B1, 199 nM.
Turning to `CN(Cc1cncc(-c2cc3c4c(c2)CCN4C(=O)CC3)c1)C(=O)c1ncccc1Cl` [Example 237, 3-Chloro-pyridine-2-carboxylic acid methyl-[5-(4-oxo-1,2,5,6-tetrahydro-4H-pyrrolo[3,2,1-ij]quinolin-8-yl)-pyridin-3-ylmethyl]-amide], the EC50 at human CYP11B2 is 8 nM; on human CYP11B1, 143 nM.
The matching figures for `CC(N[S@+]([O-])C(C)(C)C)c1cncc(-c2ccc3c(c2)CCC(=O)N3C)c1` (single isomer, unassigned) [Example 56, (R)-2-Methyl-propane-2-sulfinic acid {(S or R)-1-[5-(1-methyl-2-oxo-1,2,3,4-tetrahydro-quinolin-6-yl)-pyridin-3-yl]-ethyl}-amide]: 40 nM and 587 nM.
As for `Cc1noc(C)c1C(=O)NC1(c2cncc(-c3ccc4c(c3)CCC(=O)N4C)c2)CC1` [Example 113], the EC50 is 75 nM at human CYP11B2 and 1570 nM at human CYP11B1.
The matching figures for `CCC(=O)NCCOc1cncc(-c2ccc3c(c2)CCC(=O)N3C)c1` [Example 43, N-{2-[5-(1-Methyl-2-oxo-1,2,3,4-tetrahydro-quinolin-6-yl)-pyridin-3-yloxy]-ethyl}-propionamide]: 40 nM and 1560 nM.
As to `CN1C(=O)CCc2cc(-c3cncc(CNC(=O)C(C)(C)O)c3)ccc21` [Example 79], the EC50 is 35 nM at human CYP11B2 and 302 nM on human CYP11B1.
In the case of `CN(Cc1cncc(-c2ccc3c(c2)CCC(=O)N3C)c1Cl)C(=O)c1ncccc1Cl` [Example 228, 3-Chloro-pyridine-2-carboxylic acid [4-chloro-5-(1-methyl-2-oxo-1,2,3,4-tetrahydro-quinolin-6-yl)-pyridin-3-ylmethyl]-methyl-amide], the EC50 at human CYP11B2 came to 9 nM; at human CYP11B1, 356 nM.
As for `CCS(=O)(=O)NC(C)c1cncc(-c2ccc3c(c2)CCC(=O)N3C)c1` (single isomer, unassigned) [Example 173, Ethanesulfonic acid {(R or S)-1-[5-(1-methyl-2-oxo-1,2,3,4-tetrahydro-quinolin-6-yl)-pyridin-3-yl]-ethyl}-amide], the concentration for a half-maximal effect (EC50) is 31 nM on human CYP11B2 and 800 nM on human CYP11B1.
The matching figures for `CN1C(=O)CCc2cc(-c3cncc(CNC(=O)c4cnoc4C(F)(F)F)c3)ccc21` [Example 145]: 175 nM and 3780 nM.
In the case of `CN1C(=O)CCc2cc(-c3cncc(CNC(=O)c4ncccc4Cl)c3)ccc21` [Example 118, 3-Chloro-pyridine-2-carboxylic acid [5-(1-methyl-2-oxo-1,2,3,4-tetrahydro-quinolin-6-yl)-pyridin-3-ylmethyl]-amide], the concentration giving a half-maximal response (EC50) was 4 nM on human CYP11B2 and 682 nM on human CYP11B1.
For `Cc1c(CN(C)C(=O)c2ncccc2Cl)cncc1-c1ccc2c(c1)CCC(=O)N2C` [Example 229, 3-Chloro-pyridine-2-carboxylic acid methyl-[4-methyl-5-(1-methyl-2-oxo-1,2,3,4-tetrahydro-quinolin-6-yl)-pyridin-3-ylmethyl]-amide], the EC50 on human CYP11B2 was 10 nM; at human CYP11B1, 656 nM.
For the compound `CN1C(=O)CCc2cc(-c3cncc(C4(N)CC4)c3)ccc21` [Example 59, 6-[5-(1-Amino-cyclopropyl)-pyridin-3-yl]-1-methyl-3,4-dihydro-1H-quinolin-2-one], the concentration for a half-maximal effect (EC50) at human CYP11B2 was found to be 33 nM; on human CYP11B1, 710 nM.
As for `CN1C(=O)CCc2cc(-c3cncc(OC[C@@H]4CCN4C(=O)OC(C)(C)C)c3)ccc21` [Example 45, (S)-2-[5-(1-Methyl-2-oxo-1,2,3,4-tetrahydro-quinolin-6-yl)-pyridin-3-yloxymethyl]-azetidine-1-carboxylic acid tert-butyl ester], the EC50 on human CYP11B2 stood at 87 nM; on human CYP11B1, 863 nM.
The matching figures for `Cc1oncc1C(=O)NCc1cncc(-c2ccc3c(c2)CCC(=O)N3C)c1` [Example 101]: 2 nM and 179 nM.
Regarding `CN1C(=O)CCc2cc(-c3cncc(CNC(=O)c4cnn(C)c4)c3)c(F)cc21` [Example 175, 1-Methyl-1H-pyrazole-4-carboxylic acid [5-(7-fluoro-1-methyl-2-oxo-1,2,3,4-tetrahydro-quinolin-6-yl)-pyridin-3-ylmethyl]-amide], the figures for the EC50 at human CYP11B2 and at human CYP11B1 were 7 nM and 688 nM, respectively.
The matching figures for `CCC(=O)NC1(c2cncc(-c3ccc4c(c3)CCC(=O)N4C)c2)COC1` [Example 130]: 162 nM and 10500 nM.
On to `CN1C(=O)CCc2cc(-c3cncc(CNC(=O)c4ncccc4Cl)c3)c(F)cc21` [Example 131, 3-Chloro-pyridine-2-carboxylic acid [5-(7-fluoro-1-methyl-2-oxo-1,2,3,4-tetrahydro-quinolin-6-yl)-pyridin-3-ylmethyl]-amide], for which the EC50 on human CYP11B2 worked out at 3 nM; on human CYP11B1 it was 440 nM.
In the case of `CN1C(=O)CCc2cc(-c3cncc(N4CCC[C@@H]4CO)c3)ccc21` [Example 6, 6-[5-((R)-2-Hydroxymethyl-pyrrolidin-1-yl)-pyridin-3-yl]-1-methyl-3,4-dihydro-1H-quinolin-2-one], the EC50 on human CYP11B2 worked out at 98 nM; at human CYP11B1, 3340 nM.
The matching figures for `CN1C(=O)CCc2cc(-c3cncc(CN[S@+]([O-])C(C)(C)C)c3Cl)ccc21` [Example 217, (R)-2-Methyl-propane-2-sulfinic acid [4-chloro-5-(1-methyl-2-oxo-1,2,3,4-tetrahydro-quinolin-6-yl)-pyridin-3-ylmethyl]-amide]: 29 nM and 1260 nM.
`CN1C(=O)CCc2cc(-c3cncc(O[C@@H]4CCNC4)c3)c(F)cc21` [Example 67, 7-Fluoro-1-methyl-6-[5-((R)-pyrrolidin-3-yloxy)-pyridin-3-yl]-3,4-dihydro-1H-quinolin-2-one hydrochloride]: the EC50 at human CYP11B2 was 160 nM; on human CYP11B1, 7670 nM.
Turning to `CCS(=O)(=O)NCc1cncc(-c2cc(F)c3c(c2)CCC(=O)N3C)c1` [Example 208, Ethanesulfonic acid [5-(8-fluoro-1-methyl-2-oxo-1,2,3,4-tetrahydro-quinolin-6-yl)-pyridin-3-ylmethyl]-amide], the values for the EC50 on human CYP11B2 and at human CYP11B1 were 59 nM and 4200 nM, respectively.
Regarding `CCS(=O)(=O)NCc1cncc(-c2ccc3c(c2)CCC(=O)N3)c1` [Example 55, ethanesulfonic acid [5-(2-oxo-1,2,3,4-tetrahydro-quinolin-6-yl)-pyridin-3-ylmethyl]-amide], the figures for the EC50 on human CYP11B2 and at human CYP11B1 were 682 nM and 11100 nM, respectively.
In the case of `CC(C)[C@H](CO)Nc1cncc(-c2ccc3c(c2)CCC(=O)N3C)c1` [Example 30, 6-[5-((R)-1-Hydroxymethyl-2-methyl-propylamino)-pyridin-3-yl]-1-methyl-3,4-dihydro-1H-quinolin-2-one], the EC50 turned out to be 170 nM on human CYP11B2 and 10200 nM on human CYP11B1.
For `CCOC(=O)N1CC[C@H](Oc2cncc(-c3ccc4c(c3)CCC(=O)N4C)c2)C1` [Example 256, (S)-3-[5-(1-Methyl-2-oxo-1,2,3,4-tetrahydro-quinolin-6-yl)-pyridin-3-yloxy]-pyrrolidine-1-carboxylic acid ethyl ester], the EC50 came out at 8 nM at human CYP11B2 and 158 nM at human CYP11B1.

The term EC50 denotes the concentration giving half of the maximal effect. Lower therefore signals greater potency.

Values taken from patent publication US9260408B2, “Dihydroquinoline-2-one derivatives” (Hoffmann-La Roche Inc., priority 2011, dated 2016).
